Data published in ChEMBL document CHEMBL5512667, “Discovery of Potent, Selective, and Orally Available IRE1α Inhibitors Demonstrating Comparable PD Modulation to IRE1 Knockdown in a Multiple Myeloma Model” (J Med Chem, 2024).
In brackets after ≈: the same amount, converted by molar mass. Blank lines part the entries; values can stand above or below the molecule they belong to. Activity calls are given as the source filed them. The rule behind the calls is not given here.

How the values were obtained:
[1] = target: T1, Serine/threonine-protein kinase/endoribonuclease IRE1 (Homo sapiens, UniProt O75460); assay: Inhibition of His-tagged IRE1alpha (G547 to L977 residues) (unknown origin) expressed in Sf9 cells preincubated with anti-His Europium labeled antibody for 1 hr prior to compound addition followed by tracer 236 addition and measured after 1 hr by TR-FRET assay
Target sequence in this assay (O75460 whole entry, the tested form may be a part): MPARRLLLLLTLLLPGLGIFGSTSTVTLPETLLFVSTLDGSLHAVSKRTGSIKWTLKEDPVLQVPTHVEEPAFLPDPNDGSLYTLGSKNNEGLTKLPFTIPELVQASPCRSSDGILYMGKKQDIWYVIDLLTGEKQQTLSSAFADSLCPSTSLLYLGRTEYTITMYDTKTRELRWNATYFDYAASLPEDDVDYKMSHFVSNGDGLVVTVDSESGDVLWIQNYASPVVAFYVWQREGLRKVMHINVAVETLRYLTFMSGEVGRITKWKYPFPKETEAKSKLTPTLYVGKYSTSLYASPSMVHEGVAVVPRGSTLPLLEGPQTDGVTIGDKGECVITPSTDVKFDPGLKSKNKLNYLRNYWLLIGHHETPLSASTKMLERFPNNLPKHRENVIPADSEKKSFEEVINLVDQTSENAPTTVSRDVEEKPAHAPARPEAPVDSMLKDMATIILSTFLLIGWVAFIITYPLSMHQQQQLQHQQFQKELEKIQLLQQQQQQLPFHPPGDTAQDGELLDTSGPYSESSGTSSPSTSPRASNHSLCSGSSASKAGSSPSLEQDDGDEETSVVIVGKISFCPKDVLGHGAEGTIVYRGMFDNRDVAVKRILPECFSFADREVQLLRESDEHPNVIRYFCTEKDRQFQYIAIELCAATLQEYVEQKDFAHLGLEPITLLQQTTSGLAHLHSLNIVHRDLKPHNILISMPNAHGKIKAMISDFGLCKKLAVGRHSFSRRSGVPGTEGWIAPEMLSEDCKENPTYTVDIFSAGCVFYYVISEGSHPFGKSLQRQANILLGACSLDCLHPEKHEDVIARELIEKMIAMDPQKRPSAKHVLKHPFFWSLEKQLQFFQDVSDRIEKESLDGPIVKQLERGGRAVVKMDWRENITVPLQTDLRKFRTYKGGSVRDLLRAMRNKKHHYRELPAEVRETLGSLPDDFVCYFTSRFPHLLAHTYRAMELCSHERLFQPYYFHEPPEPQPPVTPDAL

[2] = target: T1, Serine/threonine-protein kinase/endoribonuclease IRE1; assay: Inhibition of IRE1alpha RNase activity (unknown origin) using XBP1 as substrate preincubated for 1 hr followed by thapsigargin stimulation for 5 hrs by One-Glo luciferase reagent based luminescence assay
Target sequence in this assay (O75460 whole entry, the tested form may be a part): as above

[3] = target: T1, Serine/threonine-protein kinase/endoribonuclease IRE1; assay: Inhibition of IRE1alpha RNase activity (Q470 to L977 residues) (unknown origin) expressed in Sf9 cells using mini-XBP-1 stem-loop RNA as substrate measured every 2 mins interval for 50 mins by FRET assay
Target sequence in this assay (O75460 whole entry, the tested form may be a part): as above

[4] = Permeability across apical to basolateral side in MDCK cells; format: ADME, cell-based, Canis lupus familiaris; details: dog, read-out: permeability
[5] = Half-life in CD-1 mouse at 10 mg/kg, po or 1 mg/kg, iv measured upto 24 hrs by LC-MS/MS analysis; format: ADME, organism-based; details: in vivo
Mus musculus [6] = assay: In vivo inhibition of IRE1alpha in SCID mouse xenografted with human KMS-11 cells assessed as suppression of XBP1 level in tumor at 250 mg/kg, po BID measured after 16 to 24 hrs; format: functional, organism-based; details: time 16-24 hrs
Mus musculus [7] = assay: In vivo inhibition of IRE1alpha in SCID mouse xenografted with human KMS-11 cells assessed as suppression of XBP1 level in tumor at 250 mg/kg, po BID measured upto 12 hrs; format: functional, organism-based
[8] = AUC in Sprague-Dawley rat at >= 150 mg/kg, po administered twice daily for 7 days; format: ADME, organism-based; details: in vivo, time 7 day
[9] = Kinetic solubility of compound at pH 7.4; format: physicochemical; details: buffer, read-out: Kinetic_solubility
[10] = Toxicity in Sprague-Dawley rat assessed as decrease in thymus weight at 500 mg/kg, po administered twice daily for 7 days; format: organism-based; details: in vivo, 168 h, time 7 day
[11] = AUC in Sprague-Dawley rat at 500 mg/kg, po administered twice daily for 7 days; format: ADME, organism-based; details: in vivo, time 7 day
[12] = Bioavailability in CD-1 mouse at 10 mg/kg, po or 1 mg/kg, iv measured upto 24 hrs by LC-MS/MS analysis; format: ADME, organism-based; details: in vivo
[13] = Toxicity in Sprague-Dawley rat assessed as tolerability upto 500 mg/kg, po administered twice daily for 7 days; format: organism-based; details: in vivo, 168 h, time 7 day
[14] = Cmax in Sprague-Dawley rat at 500 mg/kg, po administered twice daily for 7 days; format: ADME, organism-based; details: in vivo, time 7 day
[15] = Toxicity in Sprague-Dawley rat assessed as increase in hepatic enzyme level at 500 mg/kg, po administered twice daily for 7 days; format: organism-based; details: in vivo, 168 h, time 7 day
[16] = Toxicity in Sprague-Dawley rat assessed as hepatocellular hypertrophy at >= 150 mg/kg, po administered twice daily for 7 days; format: organism-based; details: in vivo, 168 h, time 7 day
[17] = Toxicity in Sprague-Dawley rat assessed as decrease in thymic lymphoid depletion at 500 mg/kg, po administered twice daily for 7 days; format: organism-based; details: in vivo, 168 h, time 7 day
[18] = target: T1, Serine/threonine-protein kinase/endoribonuclease IRE1; assay: Inhibition of IRE1alpha in human KMS-11 cells assessed as reduction in XBP1 splicing preincubated for 24 hrs followed by thapsigargin addition and measured after 30 mins under FCS medium by luminescence assay; format: cell-based
[19] = Selectivity ratio of inhibition of HIPK4 (unknown origin) to inhibition of IRE1alpha (unknown origin)
[20] = Plasma protein binding in mouse incubated for 4 hrs by LC-MS/MS based rapid equilibrium dialysis method; format: ADME, cell-free; details: read-out: PPB (converted)
[21] = Volume of distribution at steady state in CD-1 mouse at 10 mg/kg, po or 1 mg/kg, iv measured upto 24 hrs by LC-MS/MS analysis; format: ADME, organism-based; details: in vivo
[22] = Apparent permeability across apical to basolateral side in MDCK cells at 10 uM incubated for 3 hrs by LC-MS/MS method; format: ADME, cell-based, Canis lupus familiaris; details: dog
[23] = target: T1, Serine/threonine-protein kinase/endoribonuclease IRE1; assay: Inhibition of IRE1alpha in human KMS-11 cells assessed as reduction in XBP1 splicing preincubated for 24 hrs followed by thapsigargin addition and measured after 30 mins by luminescence assay; format: cell-based
[24] = Toxicity in Sprague-Dawley rat assessed as increase in hepatic weight at >= 150 mg/kg, po administered twice daily for 7 days; format: organism-based; details: in vivo, 168 h, time 7 day
[25] = target: T1, Serine/threonine-protein kinase/endoribonuclease IRE1; assay: Inhibition of IRE1alpha RNase activity (unknown origin) using XBP1 as substrate preincubated for 1 hr followed by thapsigargin stimulation for 5 hrs under FCS medium by One-Glo luciferase reagent based luminescence assay
Target sequence in this assay (O75460 whole entry, the tested form may be a part): as above

[26] = Cmax in Sprague-Dawley rat at >= 150 mg/kg, po administered twice daily for 7 days; format: ADME, organism-based; details: in vivo, time 7 day

SMILES: Cc1ccc2c(NS(=O)(=O)CC3CCCCC3)cccc2c1Oc1ncccc1-c1ccnc(N[C@H]2CCCNC2)n1
IC50 [1]: 2.1 nM
IC50 [2]: 1300 nM
IC50 [3]: 24 nM

SMILES: Cc1cc(NS(=O)(=O)Cc2ccccc2)c(F)cc1Oc1ncccc1-c1ccnc(N[C@H]2CCCNC2)n1
IC50 [1]: 2.1 nM
IC50 [2]: 310 nM
IC50 [3]: 14 nM

SMILES: O=S(=O)(Cc1ccccc1)Nc1c(F)cc(Oc2ncccc2-c2ccnc(N[C@@H]3CNC[C@@H](F)C3)n2)c(F)c1F
half-life [5]: 33 min
IC50 [1]: 0.27 nM
IC50 [2]: 32 nM
inhibition (Mus musculus [6]): inactive
inhibition (Mus musculus [7]): Active
AUC at 168 h [8]: 170 µg·h/mL
solubility kinetic [9]: 65 µM (≈ 38.3 µg/mL)
Activity [10]: Toxic
AUC at 168 h [11]: 909 µg·h/mL
bioavailability [12]: 149%
Activity [13]: Non-Toxic
Cmax [14]: 104 µg/mL
Activity [15]: Toxic
Activity [16]: Toxic
Activity [17]: Toxic
IC50 [3]: 4.3 nM
IC50 [18]: 8 nM
IC90 ([18]; time 24.5 hrs): 79 nM
Selectivity ratio [19]: 83
fraction unbound at 4 h [20]: 0.029
Vdss [21]: 1.05 L/kg
Papp A→B at 3 h, 10 µM [22]: 8.7 ×10⁻⁶ cm/s
IC50 [23]: 64 nM
IC90 ([23]; time 24.5 hrs): 650 nM
Activity [24]: Toxic
IC50 [25]: 4 nM
Cmax [26]: 28.9 µg/mL

SMILES: CC(C)(C)c1nc(-c2ccc(NC(=O)Nc3cccc(C(F)(F)F)c3)c3ccccc23)c2c(N)nccn12
IC50 [1]: 36 nM
IC50 [2]: 180 nM
IC50 [3]: 200 nM

SMILES: O=S(=O)(Cc1ccccc1)Nc1c(F)cc(Oc2ncccc2-c2ccnc(N[C@@H]3CNC[C@H](F)C3)n2)c(F)c1F
IC50 [1]: 2 nM
IC50 [2]: 2700 nM
IC50 [3]: 23 nM

SMILES: Cc1c(Oc2ncccc2-c2ccnc(N[C@H]3CCCNC3)n2)ccc(NS(=O)(=O)Cc2ccccc2)c1F
IC50 [1]: 1.8 nM
IC50 [2]: 330 nM
IC50 [3]: 24 nM
Papp A→B at 3 h, 10 µM [22]: 2 ×10⁻⁶ cm/s

SMILES: Cc1ccc2c(NS(=O)(=O)CCC(F)(F)F)c(F)ccc2c1Oc1ncccc1-c1ccnc(N[C@H]2CCCNC2)n1
IC50 [1]: 0.39 nM
IC50 [2]: 35 nM
IC50 [3]: 2.1 nM

SMILES: O=S(=O)(Cc1ccccc1)Nc1c(F)cc(Oc2ncccc2-c2ccnc(N[C@@H]3CNC[C@H](CF)C3)n2)c(F)c1F
half-life [5]: 45 min
IC50 [1]: 0.26 nM
IC50 [2]: 32 nM
solubility kinetic [9]: 28 µM (≈ 16.9 µg/mL)
bioavailability [12]: 36%
IC50 [3]: 5.2 nM
fraction unbound at 4 h [20]: 0.029
Vdss [21]: 3.51 L/kg
Papp A→B at 3 h, 10 µM [22]: 2.6 ×10⁻⁶ cm/s

SMILES: O=S(=O)(Cc1ccccc1)Nc1c(F)cc(Oc2ncccc2-c2ccnc(N[C@@H]3CNC[C@@H](CF)C3)n2)c(F)c1F
IC50 [1]: 0.78 nM
IC50 [2]: 540 nM
IC50 [3]: 15 nM

Now from value to molecule:

IC50 [1]: 0.38 nM
IC50 [2]: 31 nM
IC50 [3]: 5.4 nM
SMILES: Cc1cc(NS(=O)(=O)Cc2ccccc2)c2ccccc2c1Oc1ncccc1-c1ccnc(N[C@H]2CCCNC2)n1

IC50 [1]: 17 nM
IC50 [2]: 2300 nM
IC50 [3]: 250 nM
SMILES: Cc1ccc2c(NS(=O)(=O)c3ccccc3Cl)cccc2c1Oc1ncccc1-c1ccnc(N[C@@H]2CNCC(F)(F)C2)n1

IC50 [1]: 2.2 nM
IC50 [2]: 200 nM
IC50 [3]: 17 nM
SMILES: Cc1ccc2c(NS(=O)(=O)C3CCCCC3)cccc2c1Oc1ncccc1-c1ccnc(N[C@H]2CCCNC2)n1

IC50 [1]: > 1000 nM
IC50 [2]: 32000 nM
IC50 [3]: > 10000 nM
SMILES: Cc1ccc2c(NS(=O)(=O)c3ccccc3Cl)cccc2c1Oc1ncccc1-c1ccnc(N)n1

IC50 [1]: > 1000 nM
IC50 [2]: 28000 nM
IC50 [3]: > 10000 nM
SMILES: Cc1ccc2c(NS(=O)(=O)c3ccccc3Cl)cccc2c1Oc1ncccc1-c1ccnc(N[C@H]2CCCN(CC(F)(F)F)C2)n1

IC50 [1]: 65 nM
IC50 [2]: 9000 nM
IC50 [3]: 2100 nM
SMILES: Cc1ccc2c(NS(=O)(=O)c3ccccc3Cl)cccc2c1Oc1ncccc1-c1ccnc(NC2CCC(=O)NC2)n1 (stereo not drawn)

IC50 [1]: 0.48 nM
IC50 [2]: 40 nM
Papp A→B [4]: 1 ×10⁻⁶ cm/s
IC50 [3]: 9.2 nM
SMILES: Cc1ccc2c(NS(=O)(=O)c3ccccc3Cl)cccc2c1Oc1ncccc1-c1ccnc(N[C@H]2CCCNC2)n1

IC50 [1]: 0.35 nM
IC50 [2]: 18 nM
IC50 [3]: 17 nM
SMILES: Cc1ccc2c(NS(=O)(=O)Cc3ccccc3)cccc2c1Oc1ncccc1-c1ccnc(N[C@H]2CCCNC2)n1
